Experimental data: patent US20200170932A1, “EXTENDED RELEASE L-TRI-IODOTHYRONINE SAFELY NORMALIZES KEY ELEMENTS OF MOLECULAR PATHOLOGY IN ALZHEIMERS DISEASE” (priority 2018, published 2020)

What was measured:
patients with AD = test: Administering T3 to patients with AD (clinical observation); format: in vivo, human
Description: The noradrenerigic neurotransmitter system is dependent on normal thyroid hormone activity for normal function. A deficient amount of thyroid hormone activity leads to downregulation of the noradrenergic system. This leads to attenuated postsynaptic effects and a failure to prosecute the noradrenergic mandate. In AD this phenomenon accounts for various signs and symptoms. There are aberrations of the diurnal rhythm including insomnia and daytime somnolence. Depression and/or anxiety may occur. Drooping of the upper eyelid (ptosis) is frequently seen in AD. The levator palpebrae superioris muscle, the elevator of the upper eyelid, is partially innervated by the sympathetic nervous system.

[1] = following ingestion; cited from earlier work
rat model of AD = rat model of AD (Sarkar); cited from earlier work
[2] = compounding pharmacies' technology, personal communication; cited from earlier work

SMILES: N[C@@H](Cc1cc(I)c(Oc2ccc(O)c(I)c2)c(I)c1)C(=O)O [T3, 3,5,3′-triiodothyronine]
- countenance and alertness (ptosis, adrenergic dysregulation) (patients with AD): rapid, within days, and dramatic wide-eyed countenance and an appearance of increased alertness
- time to peak levels [1]: one to two
- histology, memory and electrophysiological activity in the cholinergic system (rat model of AD): improved histology, memory and electrophysiological activity in the cholinergic system
- time of release to completion [2]: 2 to 8 h
